Calls of active or inactive are those of the source. The rule behind the calls is not given here. Bridge positions count the residues as written; N and C are the ends. Square brackets hold non-standard residues; d marks the D form. Peptide text beside a SMILES is read from it. Dab = NCC[C@H](N)C(=O)O
Key:
Type in all cases: functional, organism-based
Pseudoalteromonas [1] = assay: Induction of cell lysis in Pseudoalteromonas ER72M2 assessed as outer membrane permeability at 50 ug/ml
Pseudoalteromonas [2] = assay: Induction of cell lysis in Pseudoalteromonas ER72M2 assessed as cytoplasmic membrane integrity at 50 ug/ml
Pseudoalteromonas [3] = assay: Antimicrobial activity against Pseudoalteromonas ER72M2 up to 50 ug/ml
Pseudoalteromonas [4] = assay: Induction of cell lysis in gramicidin D-deplolarized Pseudoalteromonas ER72M2 assessed as decrease in culture turbidity at 2 ug/ml
Pseudoalteromonas [5] = assay: Induction of cell lysis in Pseudoalteromonas ER72M2 assessed as voltage dissipation in presence of KCN
Pseudoalteromonas [6] = assay: Induction of cell lysis in Pseudoalteromonas ER72M2 assessed as decrease in culture turbidity
Pseudoalteromonas [7] = assay: Induction of cell lysis in Pseudoalteromonas ER72M2 assessed as decrease in culture turbidity treated at 50 ug/ml after 30 mins addition of Mg2+
Pseudoalteromonas [8] = assay: Induction of cell lysis in Pseudoalteromonas A28 assessed as decrease in culture turbidity at 50 ug/ml
Pseudoalteromonas [9] = assay: Induction of cell lysis in Pseudoalteromonas ER72M2 assessed as increase in extracellular concentration of tetraphenylphonium treated at 50 ug/ml after 30 mins incubation
Pseudoalteromonas [10] = assay: Induction of cell lysis in Pseudoalteromonas ER72M2 at 10 ug/ml in presence of arsenate
Pseudoalteromonas [11] = assay: Induction of cell lysis in Pseudoalteromonas ER72M2 at 10 ug/ml
Pseudoalteromonas [12] = assay: Induction of cell lysis in Pseudoalteromonas ER72M2 assessed as binding of phenyldicarbaundecaborane at 3 ug/ml in presence of gramicidin D
[13] = tested on: Pseudoalteromonas espejiana; assay: Induction of cell lysis in Pseudoalteromonas espejiana BAL31 assessed as decrease in culture turbidity at 50 ug/ml
Pseudoalteromonas [14] = assay: Induction of cell lysis in Pseudoalteromonas ER72M2 assessed as increase in alkalization of membrane treated at 50 ug/ml after 30 mins incubation
Pseudoalteromonas [15] = assay: Induction of cell lysis in Pseudoalteromonas ER72M2 assessed as accumulation of phenyldicarbaundecaborane treated at 50 ug/ml after 30 mins incubation
Pseudoalteromonas [16] = assay: Induction of cell lysis in Pseudoalteromonas ER72M2 assessed as increase in accumulation of phenyldicarbaundecaborane at 2 ug/ml
Escherichia coli = assay: Induction of cell lysis in Escherichia coli HMS174 assessed as decrease in culture turbidity at 50 ug/ml
Pseudoalteromonas [17] = assay: Induction of cell lysis in Pseudoalteromonas ER72M2 assessed as leakage of intracellular K+ treated at 50 ug/ml after 30 mins incubation
Pseudoalteromonas [18] = assay: Induction of cell lysis in Pseudoalteromonas ER72M2 assessed as decrease in culture turbidity at 2 ug/ml in presence of gramicidin D
Pseudoalteromonas [19] = assay: Induction of cell lysis in Pseudoalteromonas ER72M2 assessed as decrease in culture turbidity at 2 ug/ml in presence of nigericin
Pseudoalteromonas [20] = assay: Induction of cell lysis in Pseudoalteromonas ER72M2 assessed as shrinkage of intracellular volume after 25 mins in presence of divalent cation by light microscopy
Pseudoalteromonas [21] = assay: Induction of cell lysis in Pseudoalteromonas ER72M2 assessed as complete lysis treated at 50 ug/ml after 30 mins addition of Ca2+, Mg2+
Pseudoalteromonas [22] = assay: Induction of cell lysis in Pseudoalteromonas ER72M2 assessed as accumulation of tetraphenylphonium treated at 50 ug/ml after 30 mins addition of Mg2+ and Ca2+
Pseudoalteromonas [23] = assay: Induction of cell lysis in Pseudoalteromonas ER72M2 assessed as decrease in culture turbidity treated at 50 ug/ml after 30 mins addition of Ca2+
Pseudoalteromonas [24] = assay: Induction of cell lysis in Pseudoalteromonas ER72M2 assessed as depolarization of cytoplasmic membrane at 3 ug/ml in presence of gramicidin D
Pseudoalteromonas [25] = assay: Induction of cell lysis in Pseudoalteromonas ER72M2 assessed as decipation of K+ gradient on cytoplasmic membrane treated at 50 ug/ml after 30 mins addition of Mg2+ and Ca2+
Pseudoalteromonas [26] = assay: Antimicrobial activity against Pseudoalteromonas ER72M2 after 50 hrs by epsilometer agar diffusion method
Pseudoalteromonas [27] = assay: Induction of cell lysis in Pseudoalteromonas ER72M2 assessed as leakage of intracellular K+ at 3 ug/ml in presence of gramicidin D
Pseudoalteromonas [28] = assay: Induction of cell lysis in Pseudoalteromonas ER72M2 assessed as permeability across outer membrane at 2 ug/ml
Pseudoalteromonas [29] = assay: Antimicrobial activity against Pseudoalteromonas ER72M2 assessed as after 50 hrs in presence of Mg2+ and Ca2+ by epsilometer agar diffusion method
Pseudoalteromonas [30] = assay: Induction of cell lysis in Pseudoalteromonas ER72M2 assessed as extracellular K+ concentration treated at 50 ug/ml after 30 mins addition of Mg2+ and Ca2+
Pseudoalteromonas [31] = assay: Antimicrobial activity against Pseudoalteromonas ER72M2 after 50 hrs in presence of Ca2+ cation by epsilometer agar diffusion method
Pseudoalteromonas [32] = assay: Induction of cell lysis in Pseudoalteromonas ER72M2 assessed as increase in accumulation of tetraphenylphonium at 2 ug/ml
Pseudoalteromonas [33] = assay: Induction of cell lysis in Pseudoalteromonas ER72M2 assessed as intense membrane alkalization treated at 50 ug/ml after 30 mins addition of Mg2+ and Ca2+
Pseudoalteromonas [34] = assay: Induction of cell lysis in Pseudoalteromonas ER72M2 assessed as accumulation of phenyldicarbaundecaborane treated at 50 ug/ml after 30 mins addition of Mg2+ and Ca2+
Pseudoalteromonas [35] = assay: Induction of cell lysis in Pseudoalteromonas ER72M2 assessed as decrease in culture turbidity treated at 50 ug/ml after 30 mins addition of Ca2+, Mg2+
Pseudoalteromonas [36] = assay: Induction of cell lysis in Pseudoalteromonas ER72M2 assessed as dipolarization of cytoplasmic membrane treated at 50 ug/ml after 30 mins incubation
Pseudoalteromonas [37] = assay: Antimicrobial activity against Pseudoalteromonas ER72M2 after 50 hrs in presence of Mg2+ cation by epsilometer agar diffusion method
Pseudoalteromonas [38] = assay: Induction of cell lysis in Pseudoalteromonas ER72M2 assessed as depolarization of cytoplasmic membrane treated at 50 ug/ml after 30 mins addition of Mg2+ and Ca2+

Question: Which results are given for `CC(C)C[C@@H]1NC(=O)[C@@H](Cc2ccccc2)NC(=O)[C@H](CCN)NC(=O)[C@@H](NC(=O)[C@H](CCN)NC(=O)[C@@H](N)[C@@H](C)O)CCNC(=O)[C@H]([C@@H](C)O)NC(=O)[C@H](CCN)NC(=O)[C@H](CCN)NC1=O` (H-T[Dab][Dab][Dab][dF]L[Dab][Dab]T; lactam 3-C)?
Answer: Activity (Pseudoalteromonas [1]): Active; Activity (Pseudoalteromonas [2]): inactive; Activity (Pseudoalteromonas [3]): inactive

Question: For POLYMYXIN B, which Activity (Pseudoalteromonas [4]) is on record?
Answer: inactive

Question: What about the Activity (Pseudoalteromonas [5]) of the same compound?
Answer: Active

Question: And the Activity (Pseudoalteromonas [6])?
Answer: Dose-dependent effect

Question: And the Activity (Pseudoalteromonas [7])?
Answer: Active

Question: What about the Activity (Pseudoalteromonas [8]) of the same compound?
Answer: Active

Question: What about the Activity (Pseudoalteromonas [9]) of the same compound?
Answer: Active

Question: And the Activity (Pseudoalteromonas [10])?
Answer: Active

Question: And the Activity (Pseudoalteromonas [11])?
Answer: Active

Question: What about the Activity (Pseudoalteromonas [12]) of the same compound?
Answer: Active

Question: What about the Activity [13] of the same compound?
Answer: Active

Question: And the Activity (Pseudoalteromonas [14])?
Answer: Active

Question: And the Activity (Pseudoalteromonas [15])?
Answer: Active

Question: What about the Activity (Pseudoalteromonas [16]) of the same compound?
Answer: Active

Question: And the Activity (Escherichia coli)?
Answer: Active

Question: And the Activity (Pseudoalteromonas [17])?
Answer: Active

Question: And the Activity (Pseudoalteromonas [18])?
Answer: inactive

Question: And the Activity (Pseudoalteromonas [19])?
Answer: Active

Question: And the Activity (Pseudoalteromonas [20])?
Answer: Active

Question: And the Activity (Pseudoalteromonas [21])?
Answer: inactive

Question: What about the Activity (Pseudoalteromonas [22]) of the same compound?
Answer: Active

Question: And the Activity (Pseudoalteromonas [1])?
Answer: Active

Question: And the Activity (Pseudoalteromonas [23])?
Answer: Active

Question: And the Activity (Pseudoalteromonas [24])?
Answer: Active

Question: What about the Activity (Pseudoalteromonas [25]) of the same compound?
Answer: Active

Question: And the MIC (Pseudoalteromonas [26])?
Answer: 0.33 µg/mL

Question: What about the Activity (Pseudoalteromonas [27]) of the same compound?
Answer: Active

Question: What about the Activity (Pseudoalteromonas [28]) of the same compound?
Answer: inactive

Question: And the MIC (Pseudoalteromonas [29])?
Answer: 0.42 µg/mL

Question: And the Activity (Pseudoalteromonas [30])?
Answer: Active

Question: And the MIC (Pseudoalteromonas [31])?
Answer: 0.11 µg/mL

Question: And the Activity (Pseudoalteromonas [32])?
Answer: Active

Question: And the Activity (Pseudoalteromonas [33])?
Answer: Active

Question: And the Activity (Pseudoalteromonas [34])?
Answer: Active

Question: What about the Activity (Pseudoalteromonas [35]) of the same compound?
Answer: inactive

Question: What about the Activity (Pseudoalteromonas [36]) of the same compound?
Answer: Active

Question: What about the MIC (Pseudoalteromonas [37]) of the same compound?
Answer: 0.33 µg/mL

Question: What about the Activity (Pseudoalteromonas [38]) of the same compound?
Answer: Active

— ChEMBL document CHEMBL1137644, “Polymyxin B induces lysis of marine pseudoalteromonads” (Antimicrob Agents Chemother, 2007)
